# Assay results: US10450327B2, “Epidithiodioxopiperazine compound or its derivatives, and the use thereof” (priority 2011, dated 2019)
# Columns and labels:
# PrxII knocked down HAECs = assay: Intracellular hydrogen peroxide (DCF fluorescence), PrxII knocked down HAECs; assay type: cell-based, human
# Method: First, the ability of GT to eliminate intracellular hydrogen peroxide in PrxII knocked down HASMCs and HAECs was tested. The cellular hydrogen peroxide production was monitored using an oxidant-sensitive fluorescence dye (2′,7′-dihydro-chlorofluorescein diacetate, H2DCF-DA).
# [1] = system: balloon injured carotid arteries; assay: Vascular permeability test (Evans blue inflow); conditions: rat, in vivo
# Method: Mice were injected intravenously with 100 μl of 5% Evans blue for 30 minutes and then perfused with PBS for 5 minutes. The common carotid arteries were removed from both uninjured collateral and injured ipsilateral ones. The result was dissected, opened longitudinally, and examined on a phase contrast microscope with a magnification of 20×. For quantification, the Evans blue inflowed into the blood vessel was extracted by being placed in formamide at 55° C. overnight and centrifuged for 10 minutes at 12,000 rpm. The supernatants were collected and the absorbance was measured at 620 nm. The background value of the Evans blue dye was measured at 740 nm and substracted from the values in carotid arteries. For VEGFR2 inhibition, SU5416 (20 mg/kg) was injected intraperitoneally for 3 times (Days −1, 1, and 3) before and after the balloon injury. Control injection was made of 200 μl PBS including a vehicle (5% DMSO).
# The permeability of the repaired endothelium was examined by Evans blue inflow.
compound,measurement,setting,value
CN1C(=O)[C@]23CC4=CC=C[C@H](O)[C@H]4N2C(=O)[C@@]1(CO)SS3 [gliotoxin],basal level of intracellular hydrogen peroxide enhanced by PrxII knockdown,PrxII knocked down HAECs,completely eliminated
same,Evans blue inflow compared to DMSO-treated injured carotid arteries,[1],approximately two-third reduction
